{
  "source": "patent US12617818B2",
  "about": "“Compositions and methods for modulating myosin subfragment-2 coiled coil stability and methods for using them” (UNIVERSITY OF NORTH TEXAS, priority 2020, dated 2026)",
  "key": {"[1]": {"molecular_target": "T1, human cardiac myosin S2 peptide (Homo sapiens, UniProt P12883)", "T1 construct": "The 19 residue peptide was chemically synthesized", "experiment": "Competitive ELISA (cELISA) against polyclonal anti-S2 antibody", "format": "binding", "details": "curve fit of OD vs peptide concentration; read-out: binding efficiency (Kd) to human cardiac myosin S2 peptide", "protocol": "Phosphate buffer saline (PBS) contained 0.14 M sodium chloride, 2.7 mM potassium chloride, 1.5 mM potassium phosphate monobasic, and 8.1 mM sodium phosphate dibasic with pH 7.4. Detergent buffer was made with 0.05% triton X-100 in PBS, blocking buffer was made with 3% powdered milk in detergent buffer. Assay buffer contained 100 mM potassium phosphate dibasic, 100 mM potassium phosphate monobasic, 1 M potassium chloride and 10 mM magnesium chloride with pH 7.0. Stocks of primary antibody (polyclonal antibody anti-S2), rabbit skeletal myosin, human cardiac myosin S2 peptide, stabilizer and destabilizer peptide. Secondary antibody conjugated with alkaline phosphatase was anti-guinea pig immunoglobulin G (IgG)-alkaline phosphatase (Sigma-Aldrich, catalog number A5062) produced in goat and isolated by affinity chromatography. Substrate was 5-Bromo-4-chloro-3-indolyl phosphate (BCIP) tablets dissolved in 10 ml of distilled water per tablet and 96 well microtiter plate.\nCompetitive Enzyme Linked Immunosorbent Assay (cELISA) is a classical immunochemical test to validate the binding efficiency and specificity in lower molar concentrations (Yorde et al., 1976; Voller et al., 1978; Walker, J. M. 1996). In this assay the polyclonal antibody anti-S2 raised against single alpha helix of myosin S2 would be used to compete with stabilizer or destabilizer peptide to bind myosin S2 in rabbit skeletal myosin molecule as well as small human cardiac myosin S2 peptide. This cELISA, thus have two molecules polyclonal anti-S2 and stabilizer peptide which have two binding sites one on rabbit skeletal myosin and the other one being on small human cardiac myosin S2. Since both polyclonal anti-S2 and stabilizer peptide were designed against human β-cardiac myosin S2 they both would have a stronger affinity towards the smaller human β-cardiac myosin S2 peptide against the myosin S2 on rabbit skeletal myosin.\nTo test the binding specificity and efficiency of stabilizer or destabilizer peptide the following setup was used. Start of the setup would be to coat the wells with rabbit skeletal myosin molecule and add appropriate amount human cardiac myosin S2 peptide that would bind the primary polyclonal anti-S2 antibody and when washed there won't be enough primary polyclonal anti-S2 antibody to bind myosin S2 of rabbit skeletal myosin adsorbed on the wells. When alkaline phosphatase conjugated secondary antibody is added on to the wells, it won't have enough or none primary polyclonal anti-S2 antibody to bind. After addition of color developing BCIP substrate to the wells it would lead to low or no color development leading to lower optical density (OD). […]"}, "[2]": {"molecular_target": "T2, cardiac muscle myosin S2 peptide (MYH7) (Homo sapiens, UniProt P12883)", "T2 construct": "host or cells: chemical synthesis", "T2 sequence (P12883 912-947 limits assumed)": "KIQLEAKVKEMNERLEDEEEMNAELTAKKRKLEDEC", "experiment": "Gravitational force spectroscopy (GFS), uncoiling of cardiac myosin S2 peptide dimer", "format": "biochemical", "details": "length 10 nm, absence of anti-S2 peptides, ± SEM", "text": "(§1) 3-aminopropyltriethoxysilane, acetone, coupling buffer (0.01 M pyridine in water with pH 6.0), 5% glutaraldehyde, quenching solution (1 M glycine in water with pH 7.0), blocking buffer (0.01 M Tris, 0.1% sodium azide, 0.1% bovine serum albumin, 0.15 M sodium chloride, and 0.001 M ethylenediaminetetraacetic acid with pH 7.0), wash buffer (0.01 M Tris, 0.1% sodium azide, 0.15 M sodium chloride, and 0.001 M ethylenediaminetetraacetic acid with pH 7.0) low salt buffer (0.1 M potassium chloride, 0.02 M imidazole, 5 mM magnesium chloride, with pH 7.0), 1-ethyl-3-(3-dimethyaminopropyl) carbodiimide, N-hydroxysuccinamide, iodoacetamide-succinimidyl ester, 8M urea solution (50 mM imidazole and 0.1 mM tris (2-carboxyethyl) phosphine with pH 7.0) monodisperse silica beads, glass slides, glass coverslips, vacuum grease, rabbit skeletal myosin, purified actin (G-actin), 1 μM human β-cardiac myosin S2 peptide, 1 μM human β-cardiac mutants myosin S2 peptide (E930del and E924K), 1 μM human skeletal myosin S2 peptide, 1 μM human smooth myosin S2 peptide, stabilizer peptide, and destabilizer peptide. A light microscope with an objective lens of 10× was mounted on an alt-azimuthal mount. A digital video camera of Sony, XCD-V60 was replaced with the ocular lenses. Extension springs on steel bracket held the alt-azimuthal mount suspended.\n(§2) Gravitational force spectroscopy (GFS), is a single molecule force spectroscopy that utilizes gravitational force to measure absolute length of a single molecule at the given force calculated by the density of the bead suspending the molecule. This technique was discovered and developed in Root lab, which measures the forces in piconewton and sub-piconewton levels. Other than absolute length of a molecule, GFS measures force range required to uncoil, stretch or extend the molecule yielding a force-distance profile for the suspended molecule. Besides that, based on the force-distance profile, number of amino acids within the molecule can be calculated. […] The GFS allowed to test the flexibility or stability of a single molecule of myosin S2 peptide and also for the S2 peptides treated with anti-S2 peptides. Flexibility of myosin S2 is not dependent on assembly myosin as a thick filament or myosin in its single molecule form. The flexibility of myosin S2 region was reported to be similar in single molecule form or myosin in a thick filament assembly thus it could be conceived that the changes seen on flexibility of myosin S2 in presence of anti-S2 peptides would correlate to changes in myosin S2 flexibility for myosin in a thick filament form (Singh et al., 2018). The schematic diagram of GFS is shown below (schematic diagrams of GFS which has two modes: (FIG. 15) free-fall mode, (FIG. 16) rotational mode.\nGFS set up assembly contains a light microscope that is horizontally mounted on an alt-azimuthal which is suspended with help of extension springs on a steel bracket. To capture both images and videos of suspended molecule, a digital video camera has been placed instead of the ocular lenses. The molecule of interest is tethered between an immobile edge of glass coverslip placed on a glass slide and mobile silica or glass bead. Slide with the molecule of interest in inserted into the light microscope component of GFS. The bead with molecule of interest is imaged through the microscope and then oriented to the direction of gravity vector to allow the maximal gravitation force exerted on to the bead. GFS has two modes, one is called rotational mode or an equilibrium mode which measures the absolute length of a single molecule and the second one is called free fall mode which measures the force required to unwind, uncoil, stretch or extend the molecule of interest.\nFree fall mode, another measurement variant of GFS which allows the user to get a force distance profile on a single molecule experiencing the gravitational force. […]"}, "[3]": {"system": "primary polyclonal anti-S2 antibody", "experiment": "cELISA of human cardiac myosin S2 peptide against rabbit skeletal myosin S2 for antibody", "format": "binding", "details": "antibody diluted 1:64", "protocol": "To evaluate the amount of cardiac myosin S2 peptide that would compete with rabbit skeletal myosin S2 to bind primary polyclonal anti-S2 antibody, the microtiter plate was coated with rabbit skeletal myosin first to that was added two fold dilutions of human cardiac myosin S2 peptide from 1000 nanomolar (nM) to 1 nM. Following this 1:64 diluted primary polyclonal antibody was added. After the washing step, secondary antibody is added followed by BCIP and development of color or OD was recorded and the video was analyzed by Image J. The OD will decrease as the concentration of human cardiac myosin S2 increases. […] The minimum amount of human cardiac myosin S2 peptide that would bind primary polyclonal anti-S2 antibody was at 62.5 nM (FIG. 36). Such a high binding efficiency was expected, since primary polyclonal anti-S2 antibody was raised against the same human cardiac myosin S2."}, "[4]": {"molecular_target": "skeletal muscle myosin S2 peptide (MYH2) (Homo sapiens, UniProt Q9UKX2)", "sequence (Q9UKX2 918-953 limits assumed)": "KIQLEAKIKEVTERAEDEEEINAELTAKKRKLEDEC", "experiment": "GFS, uncoiling of skeletal myosin S2 peptide dimer", "format": "biochemical", "parameters": "host or cells: chemical synthesis", "details": "length 10 nm, absence of anti-S2 peptides, ± SEM", "text": "as §1, §2\nFree fall mode, another measurement variant of GFS which allows the user to get a force distance profile on a single molecule experiencing the gravitational force. Free fall mode allows a variable force by the virtue of gravity to be exerted on a single molecule. The GFS setup, light microscope with mounted camera on spring on alt-azimuthal platform, can be dropped. The start of free-fall mode force applied to the bead is zero or close to zero. […] As the platform goes towards equilibrium, trace of the acceleration decays. During the free fall mode, GFS has a single molecule which is suspended within an immobile edge and mobile bead will now experience the variable force which would be calculated by the product of mass of the bead and the acceleration of the GFS.\nThe product of the GFS acceleration and the mass of the bead will provide a force trace for the single molecule tethered between the immobile edge and mobile bead. The image processing would provide distance trace for the single molecule experiencing the free fall by the GFS. When this force trace is aligned with distance trace will yield the extension or the stretch experience by the single molecule under variable forces. […]"}, "[5]": {"molecular_target": "T3, smooth muscle myosin S2 peptide (MYH11) (Homo sapiens, UniProt P35749)", "T3 construct": "A 21 residue peptide of the S2 region of MYH11 was matched to the previously synthesized S2 peptide; host or cells: chemical synthesis", "experiment": "FRET of smooth muscle myosin S2 peptide dimer with anti-S2 peptides", "format": "binding", "details": "control, no anti-S2 peptide; read-out: Dissociation Constant (Kd) of S2 peptide dimer", "text": "Human smooth muscle myosin heavy chain (MYH11) is a part of the non-striated muscle. This gene can be found within esophagus, endometrium, duodenum, etc. A 21 residue peptide of the S2 region of MYH11 was matched to the previously synthesized S2 peptide of cardiac isoform and chemically synthesized 926-946. Generated amino acid sequence used is as follow: • Smooth: NH2-[…]—COOH (SEQ ID NO:11)\nResonance energy probes (donor and acceptor) were covalently attached to synthetic myosin S2 peptides of cardiac muscle, E930del cardiac muscle, E924K cardiac muscle, smooth muscle, and skeletal muscle (Aboonasrshiraz, N., 2020).\nAcceptor probe was conjugated to muscle myosin S2 peptides at N-terminus. Muscle myosin S2 peptides were dissolved in 20 mM HEPES buffer at pH 8.0. And FITC was dissolved in few drops of N, N dimethyl formamide. Lastly, FITC and muscle myosin S2 peptide was reacted together in 1 to 1 molar ratio and was let to react for 120 minutes at room temperature. […]\nIn FRET assay, Fluorescein Isothiocyanate (FITC) functioned as fluorescent acceptor probe and Terbium Diethylene Triamine Pentaacetic Acid-Cytosine (Lanthanide-DTPA-Cytosine) functioned as donor probe. […] Lifetime of donor probe was measured in milliseconds.\nThe specificity of peptides were later tested on the myosin S2 of the smooth muscle (MYH11). […] Calculated separation distance in presence of the stabilizer peptide was 3.34 nm."}, "[6]": {"molecular_target": "T4, cardiac muscle myosin S2 peptide E930del (MYH7 E930del) (Homo sapiens, UniProt P12883, DEL931-931)", "T4 construct": "host or cells: chemical synthesis", "T4 sequence (P12883 with tags, fused parts or gaps DEL931-931)": "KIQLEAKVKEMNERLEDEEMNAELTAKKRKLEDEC", "experiment": "GFS, uncoiling of E930del cardiac myosin S2 peptide dimer", "format": "biochemical", "details": "for Force required to uncoil S2 molecule: length 10 nm, absence of stabilizer, ± SEM", "text": "as §1\nas §2, with “The flexibility of myosin S2 region was reported to be similar in single molecule form or myosin in a thick filament assembly thus it could be conceived that the changes seen on flexibility of myosin S2 in presence of anti-S2 peptides would correlate to changes in myosin S2 flexibility for myosin in a thick filament form (Singh et al., 2018). The schematic diagram of GFS is shown below (schematic diagrams of GFS which has two modes: (FIG. 15) free-fall mode, (FIG. 16) rotational mode.” left out\nFree fall mode, another measurement variant of GFS which allows the user to get a force distance profile on a single molecule experiencing the gravitational force. […] During the free fall mode, GFS has a single molecule which is suspended within an immobile edge and mobile bead will now experience the variable force which would be calculated by the product of mass of the bead and the acceleration of the GFS. […]"}},
  "note": "Values joined by “and” are separate entries in the source; they are usually repeats but may differ in a detail not shown here. Equal entries are not always repeated.",
  "data": [
    {"molecule": "C[C@H](NC(=O)[C@H](CCCCN)NC(=O)[C@H](Cc1ccccc1)NC(=O)[C@H](CCCCN)NC(=O)[C@H](CCCCN)NC(=O)[C@H](CCCCN)NC(=O)[C@H](CCCCN)NC(=O)[C@H](CCCCN)NC(=O)[C@H](CCCCN)NC(=O)[C@H](CCCCN)NC(=O)[C@@H](N)CCCCN)C(=O)N[C@@H](CCCCN)C(=O)N[C@@H](CCCCN)C(=O)N[C@@H](CCCCN)C(=O)N[C@@H](CCCCN)C(=O)N[C@@H](CCCCN)C(=O)N[C@@H](CCCCN)C(=O)O", "note": "[stabilizer peptide]", "values": [
      {"measurement": "Kd", "setting": "[1]", "value": "1.37 nM and 1.38 nM"}
    ]},
    {"molecule": "H-EMNERLEDEEEMNAELTAK-OH [Cardiac Myosin S2, reference compound]", "values": [
      {"measurement": "Force required to uncoil S2 molecule", "setting": "[2]", "value": "8.63E−01 ± 7.45E−02", "unit": "pN"},
      {"measurement": "Force required to uncoil S2 molecule", "setting": "[2]; listed as cardiac muscle myosin S2", "value": "8.63×10^−1±7.45×10^−2 pN"},
      {"measurement": "minimum amount that would bind primary polyclonal anti-S2 antibody", "setting": "[3]", "value": 62.5, "unit": "nM"}
    ]},
    {"molecule": "H-EVTERAEDEEEINAELTAK-OH [Skeletal Myosin S2, reference compound]", "values": [
      {"measurement": "Force required to uncoil S2 molecule", "setting": "[4]", "value": "4.50E−01 ± 5.56E−02", "unit": "pN"},
      {"measurement": "Force required to uncoil S2 molecule", "setting": "[4]; listed as skeletal muscle myosin S2", "value": "4.50×10^−1±5.56×10^−2 pN"}
    ]},
    {"molecule": "H-EMEARLEEEEDRGQQLQAERK-OH [Smooth Myosin S2, reference compound]", "values": [
      {"measurement": "Kd", "setting": "[5]", "value": 302, "unit": "nM"}
    ]},
    {"molecule": "H-EMNERLEDEEMNAELTAK-OH [Cardiac Myosin S2 Mutant, E930del]", "values": [
      {"measurement": "Force required to uncoil S2 molecule", "setting": "[6]", "value": "4.11E−01 ± 2.97E−02", "unit": "pN"},
      {"measurement": "Force required to uncoil S2 molecule", "setting": "[6]; listed as E930del", "value": "4.11×10^−1±2.97×10^−2 pN"},
      {"measurement": "mechanical instability compared to wild type cardiac muscle myosin S2", "setting": "[6]; no anti-S2 peptide", "value": 2.10, "unit": "times"}
    ]}
  ]
}
